This is an account of results in patent publication US20200188511A1, “METHODS OF IMPROVING EFFICACY OF ALLERGY VACCINES” (ANERGIS S.A., priority 2018, published 2020).

In this assay the test system is Bet v 1-specific IgE. Nature of the assay: In vitro IgE binding (IgE ELISA competition and basophil degranulation assays). Further details: species or system human. The procedure: These experiments are necessary to ensure that the presentation of the peptides in the Bet v1 COP-Virosomes is not associated with the appearance of unexpected binding to pre-existing Bet v 1-specific IgE.
Bet v 1 at 2 μg/ml was coated overnight on 96-well Nunc Maxisorp® immunoplates (Thermo Fisher Scientific Inc., Wohlen, Switzerland). Sera from birch allergic persons were diluted either ten-fold or twenty-fold (depending on Bet v 1 specific IgE content) and added to serial dilutions of either Bet v 1 or COPs virosomes and incubated for 15 minutes on ice. Serial dilutions of Bet v 1 and COPs virosomes ranged from 10^−6 M to 10^−12 M, final concentration. Serum antigen mixtures were then added to the ELISA plates.

Consider “Aller T1: COP peptide of 49 amino acids, aa 2-50 of Bet v 1 (SEQ ID 4) (GVFNYETETTSVIPAARLFKAFILDGDNLFPKVAPQAISSVENIEGNGG)”, for which the IgE binding result is listed as “absence of detectable IgE binding”. For “Aller T3: COP peptide of 55 amino acids, aa 106-160 of Bet v 1 (SEQ ID 4) (VATPDGGSILKISNKYHTKGDHEVKAEQVKASKEMGETLLRAVESYLLAHSDAYN)”, the IgE binding entry is on record as “absence of detectable IgE binding”.

B1: Aller T2: COP peptide of 71 amino acids, aa 48-118 of Bet v 1 (SEQ ID 4) (peptide)
chain: NGGPGTIKKISFPEGFPFKYVKDRVDEVDHTNFKYNYSVIEGGPIGDTLEKISNEIKIVATPDGGSILKIS
As to B1, the IgE binding result is “absence of detectable IgE binding”.
